Laboratory results taken from patent US9814732B2, “Ulipristal acetate for prevention and treatment of breast tumors” (LABORATOIRE HRA-PHARMA, priority 2012, dated 2017).

Legend:
MCF-7 cells = assay: Apoptosis, sub-G1 quantification by flow cytometry in MCF-7 cells; assay type: cell-based, human; conditions: 48 h
Experimental: (§1) After seeding, cells were cultured for 24 h in serum and phenol red free medium. Then treatments were carried out in a phenol red free medium containing 5% dextran-charcoal stripped serum. Cells were treated with P or DEX (100 nM), alone or in combination with UPA, RU (1 nM to 1 μM) or CDB-3877 (100 nM). Control cells were treated with ethanol, at […] 1:1000 final ethanol concentration alone as vehicle or E2 (10 nM).
(§2) After 96 h or 48 h of hormonal treatment, respectively, for HBE or MCF-7 and T-47D cells, cells were washed in PBS, matrix dissociated with accutase enzyme (PAA laboratory, Les Mureaux, France), and centrifuged 5 minutes at 1350 rpm. Cells were fixed and frozen at −20° C. in 70% ethanol. Before analysis, cells were washed in PBS and stained with 10 μg/ml propidium iodide in PBS (containing 0.835 U/ml RNase A) (Sigma, St Quentin Fallavier, France). For each sample at least 10 000 cells were counted in a BD LSR II flow cytometer (BD Biosciences, Le Pont de Claix, France). After gating out doublets and debris, cycle distribution was analyzed using the ModFit LT software (Verity Software House, USA).

[1] = test system: normal human breast tissues xenografts; assay: Ki67 mitotic index in normal human breast tissue xenografted in athymic mice; assay type: in vivo; conditions: E2+P+UPA vs E2 and E2+P groups, lobules and ducts, UPA 20 mg pellet, 28 days
Text: Breast tissues samples were obtained from 6 women (aged 29-42 years) undergoing surgery for reduction mammoplasty, with their informed consent according to the French law on clinical experimentation.
Four weeks old ovariectomized female NMRInu/nu 20 athymic mice were purchased from Janvier laboratory (Le Genest Saint Isle, France). Breast tissues samples were obtained from 6 women (aged 29-42 years). Human mammary gland tissue was cut into 2×2×2 mm fragments and 4 fragments were then subcutaneously xenografted onto the back of 4 mice per group. Four treatment groups were performed: control, E2, E2+P and E2+P+UPA. Treatments were administered by grafting steroid pellets onto the neck of each mouse. The experimental conditions were initially determined by using a dose range of hormones mixed with cholesterol into the pellets. Blood sample assays were performed after 2 weeks and 4 weeks of treatment to measure plasmatic hormonal concentrations. Finally, the dose of 0.3 mg for E2 and 20 mg for P and UPA were used, as it provides the expected blood concentrations. For the control groups, pellets containing only cholesterol were used. To reproduce menstrual cycle conditions, mice were grafted on the first day of experiment with cholesterol, E2 and/or UPA containing pellets and on the fourteen day with cholesterol or progesterone containing pellets in control and E2 groups, or in E+P and E2+P+UPA groups, respectively. Twenty eight days after the start of experiment, mice were sacrificed. Blood was collected for each mouse, and serum was frozen at −20° C. until hormone concentrations
Mitotic index was calculated using the Ki67 antibody, and was determined for each breast tissue grafted into mice. Immunohistochemical analyses were performed using the BOND-MAX workstation (Leica, Nanterre, France). Paraffin sections of breast tissue xenografts were de-waxed and rehydrated before antigen retrieval using citrate retrieval solution (pH 6.0) for Ki67 antibody or EDTA retrieval solution (pH 9.0) for PR and ERalpha antibodies, for 30 min. […]

HBE cells = assay: Apoptosis, sub-G1 quantification by flow cytometry in HBE cells; assay type: cell-based, human; conditions: 96 h
Experimental: as §1, §2

HBCx-34 tumors = assay: HBCx-34 human mammary ductal carcinoma xenograft tumor growth in nude mice; assay type: in vivo; conditions: UPA 130 mg/kg p.o., 42 days
Text: The xenograft model used in this study was HBCx-34. HBCx-34 is a mammary ductal carcinoma with wild type P53, no HER2 overexpression and PR and ERα overexpression. […] HBCx-34 has got no cachectic property.
HBCx-34 tumors (P14.0.0/2) were transplanted subcutaneously onto 5-10 mice (donor mice, passage (n-1), female athymic nude mice (Hsd:Athymic Nude-Fox1nu), 6- to 9-week-old, Harlan Laboratories (Gannat, France)). When these tumors reached 1000 to 2000 mm3 (between 60 to 78 days), donor mice were sacrificed by cervical dislocation, tumors were aseptically excised and dissected. After removing necrotic areas, tumors were cut into fragments measuring approximately 20 mm3 and transferred for 10 min maximum in sterile DMEM/F12 culture medium, without any additional components, before grafting.
Healthy mice aged 6 to 9 weeks and weighing at least 20 g were included in the study. Mice were anaesthetized with ketamine/xylazine, and then skin was aseptized with a chlorhexidine solution, incised at the level of the interscapular region, and a 20 mm3 tumor fragment was placed in the subcutaneous tissue. Skin was closed with clips.
Mice were allocated to different groups according to their tumor volume to give homogenous mean and median tumor volume in each treatment arms. Ten mice/group, with HBCx-34 tumors between 75 and 144 mm^3, were randomized according to their tumor volume into experimental groups, and treatments (UPA 130 mg/kg, p.o. or control vehicle) were initiated 33 days post implantation of the tumor for a total duration of 42 days.
Tumor volume was evaluated biweekly during all the experimental period. Tumors were collected at the end of treatment, weight and processed for analysis.

[2] = test system: GR target genes (IEX-1, G0S8, cyclin A, BCL2); assay: qRT-PCR mRNA expression of GR target genes in HBE cells; assay type: cell-based, human
Experimental: as §1
Total RNA was extracted using TriZOL Reagent (Invitrogen, Cergy-Pontoise, France).
2 μg of total RNA was subjected to reverse transcription (RT) using random primers for 1 h at 37° C. 2 μl of RT product was diluted (1:10) and subjected to quantitative PCR using sequence specific primers (300 nM) and Brillant SYBR GREEN QPCR master mix (Fermentas, Saint-Rémy-lès-Chevreuse, France) on an Mx3000P apparatus (Agilent Technologies, Massy, France). Conditions were 1 cycle at 95° C. for 10 min followed by 40 cycles at 95° C. for 30 sec, 60° C. for 1 min and 72° C. for 30 sec. Gene expression values were normalized to the housekeeping gene 36B4. Time of steroid treatment was chosen to get the optimal stimulation for a given gene. ALPL and G0S8 mRNA were analyzed after 6 h of treatment. IEX-1, FASN, and BCL2 were analyzed after 24 h of treatment. Cyclin A mRNA was analyzed after 24 h for GR responses or 48 h for PR responses.

## CC(=O)O[C@]1(C(C)=O)CCC2C3CCC4=CC(=O)CCC4=C3[C@@H](c3ccc(N(C)C)cc3)C[C@@]21C (some centres unmarked) [UPA, 17[…]-acetoxy-11[…]-[4-N,N-dimethylamino-phenyl)-19-norpregna-4,9-diene-3,20-dione]
MCF-7 cells; 100 nM
  cell apoptosis (sub-G1 percentage), compound alone: had no apoptotic or survival properties by itself
MCF-7 cells; DEX 100 nM + UPA 100 nM
  effect of UPA on DEX-mediated apoptosis: totally inhibited by UPA
[1]
  proliferation rate (Ki67) of normal epithelial breast cells: does not significantly influence the proliferation rate
HBE cells; 100 nM
  cell apoptosis (sub-G1 percentage), compound alone: had no apoptotic or survival properties by itself
HBE cells; DEX 100 nM + UPA 100 nM
  effect of UPA on DEX-mediated anti-apoptotic effect: both hormones activities were reversed
HBE cells; P 100 nM + UPA 100 nM
  effect of UPA on P-mediated apoptosis: both hormones activities were reversed
HBCx-34 tumors
  ratio of TV in treated vs. control group (T/C): 53%
HBCx-34 tumors; control 4.63-fold
  increase in mean tumor volume (TV) at the end of treatment: 2.17 fold
HBCx-34 tumors; control 625.0±108.6 mm^3
  mean TV at sacrifice: 332.0±61.0 mm^3
[2]; DEX and/or UPA 100 nM, 6 h
  G0S8 mRNA expression: slight and non-significant antagonist effect
[2]; DEX and/or UPA 100 nM, 24 h
  BCL2 mRNA expression (GR response): did not reverse the DEX down-regulation of BCL2 mRNA
  IEX-1 mRNA expression: did not antagonize this response
  cyclin A mRNA expression (GR response): partially inhibited DEX effect on cyclin A mRNA expression
[2]; UPA 100 nM alone
  glucocorticoid agonist activity on GR target genes: did not display any glucocorticoid agonist activity
